Test results: ChEMBL document CHEMBL5113500, “New brefeldin A-cinnamic acid ester derivatives as potential antitumor agents: Design, synthesis and biological evaluation” (Eur J Med Chem, 2022)
The source made the active and inactive calls. No cut-off for these calls is given here.

Legend:
[1] = Cmax in ICR mouse at 10 mg/kg, iv; assay type: ADME, organism-based; parameters: dose 10 mg/kg, route iv; settings: in vivo
[2] = test system: HepG2; test: Induction of apoptosis in human HepG2 cells measured after 48 hrs by Annexin V-FITC/propidium iodide staining based flow cytometry; assay type: functional, cell-based; settings: dose 0.2-0.8 µM, DDE = dose-dependent effect
[3] = test system: HepG2; test: Inhibition of colony formation in human HepG2 cells assessed as reduction in colony size at 0.2 to 0.8 uM treated every 3 days for 14 days by crystal violet staining based microscopy; assay type: functional, cell-based; settings: dose 0.2-0.8 µM, time 14.0 day
[4] = test system: Bel-7402; test: Cell cycle arrest in human Bel-7402 cells assessed as accumulation at S phase at 0.5 uM measured after 24 hrs by propidium iodide staining based flow cytometry (reference value: 31%); assay type: functional
[5] = Acute toxicity in ICR mouse assessed as change in creatine kinase level at 100 mg/kg, ip measured after 6 days; assay type: organism-based; settings: in vivo, 144 h, time 6 day
[6] = test system: HepG2; test: Cell cycle arrest in human HepG2 cells assessed as accumulation at G2/M phase at 0.8 uM measured after 24 hrs by propidium iodide staining based flow cytometry (reference value: 19.93%); assay type: functional
[7] = test system: HepG2; test: Induction of apoptosis in human HepG2 cells assessed as increase in cleaved caspase-3 expression at 0.2 to 0.8 uM measured after 48 hrs by Western blot analysis; assay type: functional, cell-based; settings: dose 0.2-0.8 µM
[8] = Acute toxicity in ICR mouse assessed as body weight loss at 809 mg/kg, po measured for 6 days; assay type: organism-based; settings: in vivo, 144 h, time 6 day
[9] = Acute toxicity in ICR mouse assessed as change in ALP level at 100 mg/kg, ip measured after 6 days; assay type: organism-based; settings: in vivo, 144 h, time 6 day
[10] = Acute toxicity in ICR mouse assessed as change in blood urea nitrogen level at 100 mg/kg, ip measured after 6 days; assay type: organism-based; settings: in vivo, 144 h, time 6 day
[11] = test system: HepG2; test: Antitumor activity against human HepG2 cells xenografted in BALB/c nude mouse assessed as reduction in tumor weight at 5 to 10 mg/kg, ip administered once daily for 16 days measured post-last dose; assay type: functional, organism-based; settings: dose 5-10 mg/kg, time 16.0 day
[12] = Cytotoxicity against human L02 cells measured after 72 hrs by MTT assay; assay type: toxicity, cell-based
[13] = test system: HepG2; test: Antiproliferative activity against human HepG2 cells measured after 72 hrs by MTT assay; assay type: functional, cell-based; settings: HepG2, 72 h
[14] = test system: HepG2; test: Cell cycle arrest in human HepG2 cells assessed as accumulation at G1 phase at 0.2 uM measured after 24 hrs by propidium iodide staining based flow cytometry (reference value: 42.27%); assay type: functional
[15] = test system: Bel-7402; test: Inhibition of colony formation in human Bel-7402 cells assessed as reduction in colony size at 0.5 to 2 uM treated every 3 days for 14 days by crystal violet staining based microscopy; assay type: functional, cell-based; settings: dose 0.5-2 µM, time 14.0 day
[16] = test system: HepG2; test: Induction of apoptosis in human HepG2 cells assessed as late apoptotic cells at 0.4 uM measured after 48 hrs by Annexin V-FITC/propidium iodide staining based flow cytometry (reference value: 1.66%); assay type: functional
[17] = test system: PANC-1; test: Antiproliferative activity against human PANC-1 cells measured after 72 hrs by MTT assay; assay type: functional, cell-based; settings: PANC-1, 72 h
[18] = Toxicity in human HepG2 cells xenografted BALB/c nude mouse assessed as change in body weight at 5 to 10 mg/kg, ip administered once daily for 16 days measured 3 times per week during compound dosing; assay type: organism-based; settings: in vivo, 384 h, dose 5-10 mg/kg, time 16 day
[19] = test system: HepG2; test: Induction of apoptosis in human HepG2 cells assessed as necrotic cells at 0.2 uM measured after 48 hrs by Annexin V-FITC/propidium iodide staining based flow cytometry (reference value: 2.04%); assay type: functional
[20] = test system: Bel-7402; test: Cell cycle arrest in human Bel-7402 cells assessed as accumulation at G2/M phase at 2 uM measured after 24 hrs by propidium iodide staining based flow cytometry (reference value: 30.29%); assay type: functional
[21] = test system: HepG2; test: Cell cycle arrest in human HepG2 cells assessed as accumulation at G1 phase at 0.8 uM measured after 24 hrs by propidium iodide staining based flow cytometry (reference value: 42.27%); assay type: functional
[22] = test system: HepG2; test: Cell cycle arrest in human HepG2 cells assessed as accumulation at S phase at 0.2 uM measured after 24 hrs by propidium iodide staining based flow cytometry (reference value: 32.81%); assay type: functional
[23] = test system: HepG2; test: Induction of apoptosis in human HepG2 cells assessed as chromatin shrinkage at 0.2 to 0.8 uM measured after 48 hrs by Hoechst 33342 staining based fluorescence microscopy; assay type: functional, cell-based; settings: dose 0.2-0.8 µM
[24] = test system: HepG2; test: Induction of apoptosis in human HepG2 cells assessed as early apoptotic cells at 0.4 uM measured after 48 hrs by Annexin V-FITC/propidium iodide staining based flow cytometry (reference value: 1.81%); assay type: functional
[25] = Clearance in ICR mouse at 10 mg/kg, iv; assay type: ADME, organism-based; settings: in vivo
[26] = Volume of distribution at steady state in ICR mouse at 10 mg/kg, iv; assay type: ADME, organism-based; settings: in vivo, read-out: Vdss
[27] = Acute toxicity in ICR mouse assessed as change in creatinine level at 100 mg/kg, ip measured after 6 days; assay type: organism-based; settings: in vivo, 144 h, time 6 day
[28] = Acute toxicity in ICR mouse assessed as body weight loss at 100 mg/kg, ip measured for 6 days; assay type: organism-based; settings: in vivo, 144 h, time 6 day
[29] = Acute toxicity in ICR mouse assessed as pathological change in spleen at 100 mg/kg, ip measured after 6 days; assay type: organism-based; settings: in vivo, 144 h, time 6 day
[30] = test system: HepG2; test: Antitumor activity against human HepG2 cells xenografted in BALB/c nude mouse assessed as tumor growth inhibition at 10 mg/kg, ip administered once daily for 16 days relative to control; assay type: functional; settings: HepG2, 384 h, time 16 day, read-out: TGI
[31] = test system: HepG2; test: Induction of apoptosis in human HepG2 cells assessed as necrotic cells at 0.8 uM measured after 48 hrs by Annexin V-FITC/propidium iodide staining based flow cytometry (reference value: 2.04%); assay type: functional
[32] = test system: HepG2; test: Cell cycle arrest in human HepG2 cells assessed as accumulation at G2/M phase at 0.2 uM measured after 24 hrs by propidium iodide staining based flow cytometry (reference value: 19.93%); assay type: functional
[33] = test system: HepG2; test: Induction of ROS generation in human HepG2 cells measured after 48 hrs by DCFH-DA probe based fluorescence microscopy; assay type: functional, cell-based; settings: dose 0.2-0.8 µM, DDE = dose-dependent effect
[34] = test system: HepG2; test: Antitumor activity against human HepG2 cells xenografted in BALB/c nude mouse assessed as increase in cleaved caspase-3 expression at 5 to 10 mg/kg, ip administered once daily for 16 days measured post-last dose by immunohistochemical analysis; assay type: functional, organism-based; settings: dose 5-10 mg/kg, time 16.0 day
[35] = Terminal half life in ICR mouse at 10 mg/kg, iv; assay type: ADME, organism-based; settings: in vivo, read-out: beta t1/2 (converted)
[36] = test system: HepG2; test: Induction of apoptosis in human HepG2 cells assessed as early apoptotic cells at 0.2 uM measured after 48 hrs by Annexin V-FITC/propidium iodide staining based flow cytometry (reference value: 1.81%); assay type: functional
[37] = test system: HepG2; test: Cell cycle arrest in human HepG2 cells assessed as accumulation at S phase at 0.4 uM measured after 24 hrs by propidium iodide staining based flow cytometry (reference value: 32.81%); assay type: functional
[38] = test system: HepG2; test: Antiproliferative activity against human HepG2 cells assessed as cell growth inhibition at 1 uM measured after 72 hrs by MTT assay relative to control; assay type: functional; settings: read-out: GI

For `C[C@H]1CCC/C=C/[C@@H]2C[C@H](O)C[C@H]2[C@H](OC(=O)/C=C/c2ccc(N(C)C)cc2)/C=C/C(=O)O1`, the Cmax [1] was 14400 ng/mL, the Activity [2] was “Dde” and the inhibition [3] was “Active”. For the same compound, the Activity [4] was 21.14%, the Activity [5] was “Non-Toxic” and the Activity [6] was 15.85%. The Activity [7] was “Active”, the Activity [8] was “Toxic” and the Activity [9] was “Non-Toxic”. For the same compound, the Activity [10] was “Non-Toxic”, the Activity [11] was “Active” and the IC50 at 72 h [12] was 2810 nM. For the same compound, the IC50 [13] was 290 nM, the Activity [14] was 48.26% and the inhibition [15] was “Active”. The Activity [16] was 3.9%, the IC50 [17] was 640 nM and the Activity [18] was “Non-Toxic”. It also gave an Activity [19] of 28.85%, an Activity [20] of 18.82% and an Activity [21] of 60.9%. The Activity [22] was 29.24%, the Activity [23] was “Active” and the Activity [24] was 1.45%. The clearance [25] was 42.5 mL/min/kg, the Vd [26] was 0.852 L/kg and the Activity [27] was “Non-Toxic”. The Activity [28] was “Toxic”, the Activity [29] was “Non-Toxic” and the inhibition in vivo at 10 mg/kg [30] was 46.2%. For the same compound, the Activity [31] was 39.85%, the Activity [32] was 22.32% and the Activity [33] was “Dde”. For the same compound, the Activity [34] was “Active”, the half-life [35] was 2.08 h and the Activity [36] was 2.03%. It also gave an Activity [37] of 21.37% and an inhibition of growth at 1 µM [38] of 92.1%.
